The values below are quoted from earlier work in patent US11252971B2, “Antimicrobial packaging films” (Cryovac, LLC, priority 2017, dated 2022).

The structures appear in SMILES notation.

The conditions of the data set: GRAS by the U.S. Food and Drug Administration.

As for `CCCCCCCCCCCC(=O)N[C@@H](CCCNC(=N)N)C(=O)OCC.Cl` [LAE, ethyl-N^α-dodecanoyl-L-arginate.HCl], the Toxicity result is recorded as “nontoxic”.
